The record followed here is ChEMBL document CHEMBL3751665, “Identification of a novel NAMPT inhibitor by combinatorial click chemistry and chemical refinement” (Medchemcomm, 2015).

Experiment [1] deals with SH-SY5Y. As to the kind of experiment: Cytotoxicity against human SH-SY5Y cells assessed as cell viability at 10 uM after 48 hrs by MTT assay relative to control. It is filed as functional. The note with it: read-out: Activity. (Tetrazolium dyes change colour on reduction, which living cells bring about.)
The subject of experiment [2] is SH-SY5Y. As to the kind of experiment: Cytotoxicity against human SH-SY5Y cells assessed as cell viability at 1 uM after 48 hrs by MTT assay relative to control. It is filed as functional. The note with it: read-out: Activity.
Experiment [3] deals with SH-SY5Y. The experiment in a line: Cytotoxicity against human SH-SY5Y cells assessed as cell viability at 100 nM after 48 hrs by MTT assay relative to control. It is filed as functional. To be noted: read-out: Activity.
The subject of experiment [4] is SH-SY5Y. The experiment in a line: Cytotoxicity against human SH-SY5Y cells assessed as reduction in cell viability after 48 hrs by MTT assay. It is filed as functional, cell-based.
The target in experiment [5] is Nicotinamide phosphoribosyltransferase (Mus musculus, UniProt Q99KQ4). The experiment in a line: Inhibition of recombinant mouse NAMPT expressed in bacteria assessed as reduction in NADH formation using [14C]NAM as substrate measured for 1 hr by coupled enzymatic assay.
Nicotinamide phosphoribosyltransferase (Mus musculus, UniProt Q99KQ4), sequence (Q99KQ4 whole entry): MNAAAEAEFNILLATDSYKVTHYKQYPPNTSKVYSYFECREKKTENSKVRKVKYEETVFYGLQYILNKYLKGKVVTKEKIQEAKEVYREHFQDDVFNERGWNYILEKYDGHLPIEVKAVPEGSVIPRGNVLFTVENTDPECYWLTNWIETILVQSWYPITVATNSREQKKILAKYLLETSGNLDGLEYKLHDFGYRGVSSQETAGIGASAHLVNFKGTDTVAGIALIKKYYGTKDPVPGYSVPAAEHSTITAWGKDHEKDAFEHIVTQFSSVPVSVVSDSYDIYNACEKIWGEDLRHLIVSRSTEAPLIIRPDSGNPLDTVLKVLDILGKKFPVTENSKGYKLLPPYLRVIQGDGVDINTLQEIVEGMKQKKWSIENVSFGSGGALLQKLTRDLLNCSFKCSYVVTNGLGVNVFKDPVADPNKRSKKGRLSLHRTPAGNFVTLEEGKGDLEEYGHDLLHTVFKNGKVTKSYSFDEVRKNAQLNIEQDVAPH
In experiment [6] the target is Nicotinamide phosphoribosyltransferase (Homo sapiens, UniProt P43490). The experiment in a line: Inhibition of NAMPT in human SH-SY5Y cells assessed as NAD depletion incubated for 16 hrs. It is filed as cell-based.
Nicotinamide phosphoribosyltransferase (Homo sapiens, UniProt P43490), sequence (P43490 whole entry): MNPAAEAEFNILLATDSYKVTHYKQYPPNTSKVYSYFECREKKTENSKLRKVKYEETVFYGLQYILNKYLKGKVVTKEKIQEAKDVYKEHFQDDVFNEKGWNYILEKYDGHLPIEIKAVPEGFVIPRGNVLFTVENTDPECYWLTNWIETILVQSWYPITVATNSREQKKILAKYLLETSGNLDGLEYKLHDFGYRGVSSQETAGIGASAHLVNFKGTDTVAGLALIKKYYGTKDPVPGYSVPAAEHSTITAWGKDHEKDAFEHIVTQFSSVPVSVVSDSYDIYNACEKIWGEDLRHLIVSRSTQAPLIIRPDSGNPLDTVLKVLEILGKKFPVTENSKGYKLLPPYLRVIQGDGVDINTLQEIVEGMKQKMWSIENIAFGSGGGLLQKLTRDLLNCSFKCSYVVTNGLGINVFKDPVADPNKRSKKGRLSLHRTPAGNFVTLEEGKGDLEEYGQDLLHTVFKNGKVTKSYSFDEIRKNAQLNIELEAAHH

pEC50, pIC50: −log10 of the molar value.

With `O=C(CCCCCCCc1cn(-c2ccccc2-c2ccccc2)nn1)Nc1cccnc1`, in the experiment on SH-SY5Y [1], the viability at 10 µM stood at 111%.
As to `O=C(CCCCCCCc1cn(-c2ccccc2CO)nn1)NCc1cccnc1`, the viability at 10 µM with SH-SY5Y [1] was determined as 96%.
As to `O=C(Cc1cccnc1)NCCCCCc1cn(-c2ccccc2-c2ccccc2)nn1`, the viability at 1 µM with SH-SY5Y [2] is 99%. In addition, the viability at 0.1 µM in the experiment with SH-SY5Y [3] was determined as 106%.
For the molecule `O=C(CCCCCCCc1cn(-c2ccccc2-c2ccccc2)nn1)Nc1ccncc1`, the viability at 1 µM with SH-SY5Y [2] turned out to be 82%. Moreover, the viability at 10 µM in the experiment with SH-SY5Y [1] is 32%.
As for `O=C(CCCCCCCc1cn(-c2ccccc2Cc2ccccc2)nn1)NCCc1cccnc1`, in the experiment with SH-SY5Y [1], the viability at 10 µM was determined as 101%.
Turning to `O=C(CCCCCCCc1cn(-c2ccc(CN3CCOCC3)cc2)nn1)Nc1ccncc1`, the viability at 10 µM in the experiment with SH-SY5Y [1] is 125%.
Regarding `O=C(CCCCCCCc1cn(-c2ccc(N3CCOCC3)cc2)nn1)Nc1ccncc1`, the viability at 10 µM with SH-SY5Y [1] was found to be 103%.
The pEC50 is the EC50 on a negative log10 scale, so that one unit is a factor of ten. As a reminder, the pIC50 is the negative decadic logarithm of the IC50, by convention in mol/L. In the case of `O=C(CCCCCc1cn(-c2ccccc2-c2ccccc2)nn1)NCCc1cccnc1`, in the experiment with SH-SY5Y [2], the viability at 1 µM was determined as 29.2%. For the same molecule, the pEC50 in the experiment with SH-SY5Y [4] is 6.17. For the same molecule, the values for the pIC50 in experiment [5] and in experiment [6] were 6.77 and 8.12, respectively. In addition, the viability at 10 µM with SH-SY5Y [1] worked out at 25%.
Turning to `O=C(CCCCCCc1cn(-c2ccccc2-c2ccccc2)nn1)NCc1cccnc1`, the viability at 1 µM with SH-SY5Y [2] worked out at 98%. Further, in the experiment with SH-SY5Y [1], the viability at 10 µM came to 47%.
With `O=C(CCCCCCCCc1cn(-c2cnc3ccccc3c2)nn1)NCc1cccnc1`, in the experiment with SH-SY5Y [2], the viability at 1 µM was determined as 102%. Besides, the viability at 10 µM in the experiment with SH-SY5Y [1] worked out at 29%.
Consider `O=C(CCCCCCCCc1cn(-c2ccc(N3CCOCC3)cc2)nn1)NCc1cccnc1`, for which, in the experiment on SH-SY5Y [2], the viability at 1 µM worked out at 100%. In the experiment on SH-SY5Y [1], the viability at 10 µM is 74%.
In the case of `O=C(CCCCCc1cn(-c2ccccc2-c2ccccc2)nn1)NCc1cccnc1`, in the experiment with SH-SY5Y [2], the viability at 1 µM was determined as 13.4%. The pEC50 in the experiment with SH-SY5Y [4] is 6.34. Further, the pIC50 in experiment [5] is 6.57; in experiment [6], 8.96. Besides, in the experiment on SH-SY5Y [1], the viability at 10 µM is 12.5%.
`O=C(CCCCCc1cn(Cc2ccc(-c3ccccc3)cc2)nn1)NCCc1ccncc1`: the viability at 10 µM with SH-SY5Y [1] came to 100%.
The same measure, in the same setting: to `CNCC(=O)N(CCn1cc(CCCCCCCC(=O)NCCc2cccnc2)nn1)Cc1ccccc1` belongs 109%; to `O=C(CCCCCCCc1cn(-c2ccccc2Cc2ccccc2)nn1)NCc1cccnc1`, 94%.
With `O=C(CCc1cccnc1)NCCCCCc1cn(-c2ccccc2-c2ccccc2)nn1`, the viability at 1 µM with SH-SY5Y [2] was 54%. In addition, the viability at 0.1 µM in the experiment on SH-SY5Y [3] was 112%.
For the molecule `O=C(CCCCCCCc1cn(-c2ccccc2Cc2ccccc2)nn1)NCCc1ccncc1`, the viability at 10 µM in the experiment with SH-SY5Y [1] is 99%.
Regarding `O=C(/C=C/c1cccnc1)NCCCCCc1cn(-c2ccccc2-c2ccccc2)nn1`, the viability at 1 µM with SH-SY5Y [2] was 32%. In the experiment on SH-SY5Y [4], the pEC50 is 7.70. The results for the pIC50 in experiment [5] and in experiment [6] were 6.94 and 10.29, respectively. In the experiment with SH-SY5Y [3], the viability at 0.1 µM is 49%.
Turning to `O=C(CCCCCCCCc1cn(-c2ccc(N3CCOCC3)cc2)nn1)Nc1ccncc1`, the viability at 1 µM in the experiment on SH-SY5Y [2] was determined as 93%. For the same molecule, the viability at 10 µM with SH-SY5Y [1] was found to be 28%.
`O=C(/C=C/c1cccnc1)NCCCCC1CCN(C(=O)c2ccccc2)CC1` [DAPORINAD]: in the experiment with SH-SY5Y [4], the pEC50 was 8.49. The pIC50 in experiment [5] was 7.21.
As to `O=C(CCCCCCCCc1cn(-c2cnc3ccccc3c2)nn1)Nc1ccncc1`, the viability at 1 µM with SH-SY5Y [2] is 104%. In addition, the viability at 10 µM with SH-SY5Y [1] was found to be 53%.
